Measured values reported in patent US10174007B2, “Substituted 3-azabicyclo[3.1.0]hexanes as ketohexokinase inhibitors” (Pfizer Inc., priority 2015, dated 2019).
Like-named read-outs stand apart in the source and are kept apart here.

Molecular target: KHK-C (Homo sapiens (Human), UniProt P50053)
Experiment: Assay A: coupled-enzyme KHK absorbance assay, 10 nM KHK-C
[1] = read-out: IC50 (nM) Assay A 10 nM KHK-C, 10 nM KHK-C, 0.8 mM fructose, 0.2 mM ATP, avg of (#) runs
[2] = read-out: IC50 (nM) Assay A (Table 4), 10 nM KHK-C, 0.8 mM fructose, 0.2 mM ATP, avg of (#) runs

KHK-C, sequence (P50053 whole entry): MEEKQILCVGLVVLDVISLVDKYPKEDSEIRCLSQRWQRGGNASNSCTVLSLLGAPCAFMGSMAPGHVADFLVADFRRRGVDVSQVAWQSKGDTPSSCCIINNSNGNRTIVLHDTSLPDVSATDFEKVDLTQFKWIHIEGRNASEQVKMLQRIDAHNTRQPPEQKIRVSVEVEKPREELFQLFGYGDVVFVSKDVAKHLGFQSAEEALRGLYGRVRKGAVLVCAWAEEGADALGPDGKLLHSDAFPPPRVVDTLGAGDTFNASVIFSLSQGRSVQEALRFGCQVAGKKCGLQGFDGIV
Text: A screening assay was developed for KHK involving a coupled enzyme system which used the product of the KHK reaction to drive an absorbance signal in kinetic mode. KHK takes fructose and ATP and converts it to F1P and ADP. ADP then serves as substrate to pyruvate kinase which converts PEP to pyruvate which is then reduced to lactate by lactate dehydrogenase with the concomitant oxidation of NADH to NAD+. The resulting depletion of NADH was monitored by measuring absorbance at 340 nm.
Recombinant human KHK-C and KHK-A were expressed in E. coli as a His-tagged fusion protein and purified using Ni-NTA chromatography.
Compounds were prepared in DMSO as 4 mM stocks, diluted using an 11-point half-log scheme on a Biomek FX (Beckman Coulter), and incubated at rt for 30 minutes with the reaction mixture containing 50 mM HEPES, pH 7.4, 140 mM KCl, 3.5 mM MgCl2, 0.8 mM fructose, 2 mM TCEP, 0.8 mM PEP, 0.7 mM NADH, 0.01% Triton X-100, 30 U/mL pyruvate kinase-lactate dehydrogenase, and 10 nM purified KHK-C. The compound concentration in each well ranged from 1 nM to 100 μM. The reaction was initiated with the addition of 0.2 mM ATP. The absorbance was measured for 30 minutes on a SpectraMax reader (Molecular Devices) after ATP was added. The concentrations provided are based on the final mixture volume of 40 μL (referred to as the final concentration).
Controls: N8-(cyclopropylmethyl)-N4-(2-(methylthio)phenyl)-2-(piperazin-1-yl)pyrimido[5,4-d]pyrimidine-4,8-diamine at 2 μM final concentration was used as high percent effect (HPE) control, and 2.5% DMSO which was present in all reaction wells was used as zero percent effect (ZPE) control. Reaction rates were obtained for 300-1800 seconds time window in units of 1000*AU/min (absorbance unit per minute), and average values for ZPE and HPE controls from 16 wells each were calculated, AveZPE and AveHPE, respectively.
Percent inhibition (% inhibition) was calculated for each well using this equation:
For each compound tested, the IC50 provided is the average based on at least two separate assays conducted on separate days.

With COC(=O)C[C@@H]1[C@H]2CN(c3cc(C(F)(F)F)nc(N4CC[C@@H]4C)n3)C[C@@H]12 [Example 3, Methyl [(1R,5S,6R)-3-{2-[(2S)-2-methylazetidin-1-yl]-6-(trifluoromethyl)pyrimidin-4-yl}-3-azabicyclo[3.1.0]hex-6-yl]acetate] the IC50 was 3510 nM.

In the case of O=C(O)C[C@@H]1[C@H]2CN(c3cc(C(F)(F)F)nc(C4CCC4)n3)C[C@@H]12 [Example 6, {(1R,5S,6s)-3-[2-cyclobutyl-6-(trifluoromethyl)pyrimidin-4-yl]-3-azabicyclo[3.1.0]hex-6-yl}acetic acid], the IC50 [1] is reported as 170 nM.

With C[C@H]1[C@H](O)CN1c1nc(N2C[C@@H]3[C@@H](CC(=O)O)[C@@H]3C2)c(C2CC2)c(C(F)(F)F)n1 [Example 7, [(1R,5S,6R)-3-{5-cyclopropyl-2-[(2S,3R)-3-hydroxy-2-methylazetidin-1-yl]-6-(trifluoromethyl)pyrimidin-4-yl}-3-azabicyclo[3.1.0]hex-6-yl]acetic acid] the IC50 [1] was 111 nM.

For CCc1c(N2C[C@@H]3[C@@H](CC(=O)O)[C@@H]3C2)nc(N2C[C@@H](O)[C@@H]2C)nc1C(F)(F)F [Example 8, [(1R,5S,6R)-3-{5-ethyl-2-[(2S,3R)-3-hydroxy-2-methylazetidin-1-yl]-6-(trifluoromethyl)pyrimidin-4-yl}-3-azabicyclo[3.1.0]hex-6-yl]acetic acid], the IC50 [1] was 53.8 nM.

With C[C@@H]1N(c2nc(N3C[C@@H]4[C@H](C3)[C@H]4CS(C)(=O)=O)cc(C(F)(F)F)n2)C[C@@]1(C)O [Example 9, (2S,3R)-2,3-dimethyl-1-[4-{(1R,5S,6s)-6-[(methylsulfonyl)methyl]-3-azabicyclo[3.1.0]hex-3-yl}-6-(trifluoromethyl)pyrimidin-2-yl]azetidin-3-ol] the IC50 was 14400 nM.

C[C@H]1CCN1c1nc(N2C[C@@H]3[C@@H](CC(=O)NS(C)(=O)=O)[C@@H]3C2)cc(C(F)(F)F)n1 [Example 10, 2-[(1R,5S,6R)-3-{2-[(2S)-2-methylazetidin-1-yl]-6-(trifluoromethyl)pyrimidin-4-yl}-3-azabicyclo[3.1.0]hex-6-yl]-N-(methylsulfonyl)acetamide] showed an IC50 [1] of 682 nM.

For C[C@H]1CCN1c1nc(N2C[C@@H]3[C@@H](Cc4nnn[nH]4)[C@@H]3C2)cc(C(F)(F)F)n1 [Example 11, (1R,5S,6R)-3-{2-[(2S)-2-methylazetidin-1-yl]-6-(trifluoromethyl)pyrimidin-4-yl}-6-(1H-tetrazol-5-ylmethyl)-3-azabicyclo[3.1.0]hexane], the IC50 [1] was 866 nM.

In the case of C[C@H]1[C@H](O)CN1c1cc(N2C[C@@H]3[C@@H](CC(=O)O)[C@@H]3C2)c(Cl)c(C(C)(F)F)n1 [Example 12, [(1R,5S,6R)-3-{3-chloro-2-(1,1-difluoroethyl)-6-[(2S,3R)-3-hydroxy-2-methylazetidin-1-yl]pyridin-4-yl}-3-azabicyclo[3.1.0]hex-6-yl]acetic acid], the IC50 [1] is reported as 289 nM.

For COc1c(N2C[C@@H]3[C@@H](CC(=O)O)[C@@H]3C2)nc(N2C[C@@H](O)[C@@H]2C)nc1C(F)(F)F [Example 13, [(1R,5S,6R)-3-{2-[(2S,3R)-3-hydroxy-2-methylazetidin-1-yl]-5-methoxy-6-(trifluoromethyl)pyrimidin-4-yl}-3-azabicyclo[3.1.0]hex-6-yl]acetic acid], the IC50 [1] was 33.9 nM.

C[C@H]1[C@H](O)CN1c1nc(C(F)F)cc(N2C[C@@H]3[C@@H](CC(=O)O)[C@@H]3C2)n1 [Example 14, [(1R,5S,6R)-3-{6-(difluoromethyl)-2-[(2S,3R)-3-hydroxy-2-methylazetidin-1-yl]pyrimidin-4-yl}-3-azabicyclo[3.1.0]hex-6-yl]acetic acid] gave an IC50 [2] of 152 nM.

C[C@H]1[C@H](O)CN1c1nc(C(F)F)c(Cl)c(N2C[C@@H]3[C@@H](CC(=O)O)[C@@H]3C2)n1 [Example 15, [(1R,5S,6R)-3-{5-chloro-6-(difluoromethyl)-2-[(2S,3R)-3-hydroxy-2-methylazetidin-1-yl]pyrimidin-4-yl}-3-azabicyclo[3.1.0]hex-6-yl]acetic acid] was tested, and the IC50 [2] was 19.1 nM.

For C[C@H]1[C@H](O)CN1c1nc(N2C[C@@H]3[C@@H](CC(=O)O)[C@@H]3C2)c(Cl)c(C(F)(F)F)n1 [Example 16, [(1R,5S,6R)-3-{5-chloro-2-[(2S,3R)-3-hydroxy-2-methylazetidin-1-yl]-6-(trifluoromethyl)pyrimidin-4-yl}-3-azabicyclo[3.1.0]hex-6-yl]acetic acid], the IC50 [2] was 6.4 nM.

Work on C[C@H]1[C@H](O)CN1c1nc(N2C[C@@H]3[C@@H](CC(=O)O)[C@@H]3C2)cc(C(C)(F)F)n1 [Example 17, [(1R,5S,6R)-3-{6-(1,1-difluoroethyl)-2-[(2S,3R)-3-hydroxy-2-methylazetidin-1-yl]pyrimidin-4-yl}-3-azabicyclo[3.1.0]hex-6-yl]acetic acid] yielded an IC50 [2] of 131 nM.

Compound C[C@H]1[C@H](O)CN1c1nc(N2C[C@@H]3[C@@H](CC(=O)O)[C@@H]3C2)c(Cl)c(C(C)(F)F)n1 [Example 18, [(1R,5S,6R)-3-{5-chloro-6-(1,1-difluoroethyl)-2-[(2S,3R)-3-hydroxy-2-methylazetidin-1-yl]pyrimidin-4-yl}-3-azabicyclo[3.1.0]hex-6-yl]acetic acid] has an IC50 [2] of 16.7 nM.

C[C@H]1CCN1c1nc(N2C[C@@H]3[C@@H](CC(=O)O)[C@@H]3C2)cc(C(F)F)c1C#N [Example 19, [(1R,5S,6R)-3-{5-cyano-4-(difluoromethyl)-6-[(2S)-2-methylazetidin-1-yl]pyridin-2-yl}-3-azabicyclo[3.1.0]hex-6-yl]acetic acid] was tested, and the IC50 [2] was 7.2 nM.

Compound Cc1c(C(F)F)nc(N2C[C@@H](O)[C@@H]2C)nc1N1C[C@@H]2[C@@H](CC(=O)O)[C@@H]2C1 [Example 20, [(1R,5S,6R)-3-{6-(difluoromethyl)-2-[(2S,3R)-3-hydroxy-2-methylazetidin-1-yl]-5-methylpyrimidin-4-yl}-3-azabicyclo[3.1.0]hex-6-yl]acetic acid] has an IC50 [2] of 33.4 nM.

In the case of C[C@@H]1N(c2nc(N3C[C@@H]4[C@@H](CC(=O)O)[C@@H]4C3)c(Cl)c(C(F)F)c2C#N)C[C@@]1(C)O [Example 21, [(1R,5S,6R)-3-{3-chloro-5-cyano-4-(difluoromethyl)-6-[(2S,3R)-3-hydroxy-2,3-dimethylazetidin-1-yl]pyridin-2-yl}-3-azabicyclo[3.1.0]hex-6-yl]acetic acid], the IC50 [2] is reported as 8.7 nM.

For C[C@@H]1N(c2nc(N3C[C@@H]4[C@@H](CC(=O)O)[C@@H]4C3)cc(C(F)(F)F)n2)C[C@@]1(C)O [Example 22, [(1R,5S,6R)-3-{2-[(2S,3R)-3-hydroxy-2,3-dimethylazetidin-1-yl]-6-(trifluoromethyl)pyrimidin-4-yl}-3-azabicyclo[3.1.0]hex-6-yl]acetic acid], the IC50 [2] was 703 nM.

For C[C@H]1C[C@H](O)CN1c1nc(N2C[C@@H]3[C@@H](CC(=O)O)[C@@H]3C2)cc(C(F)(F)F)c1C#N [Example 23, [(1R,5S,6R)-3-{5-cyano-6-[(2S,4S)-4-hydroxy-2-methylpyrrolidin-1-yl]-4-(trifluoromethyl)pyridin-2-yl}-3-azabicyclo[3.1.0]hex-6-yl]acetic acid], the IC50 [2] was 11.6 nM.

Cc1c(C(F)F)nc(N2C[C@@](C)(O)[C@@H]2C)nc1N1C[C@@H]2[C@@H](CC(=O)O)[C@@H]2C1 [Example 25, [(1R,5S,6R)-3-{6-(difluoromethyl)-2-[(2S,3R)-3-hydroxy-2,3-dimethylazetidin-1-yl]-5-methylpyrimidin-4-yl}-3-azabicyclo[3.1.0]hex-6-yl]acetic acid] gave an IC50 [2] of 259 nM.
